{"source": "BindingDB's records for doi:10.3109/14756366.2011.595713", "about": "(Suven Life Sciences Ltd, 2012)"}
{"biological_target": "5-hydroxytryptamine receptor 6 (Homo sapiens, UniProt P50406)", "sequence (P50406 whole entry)": "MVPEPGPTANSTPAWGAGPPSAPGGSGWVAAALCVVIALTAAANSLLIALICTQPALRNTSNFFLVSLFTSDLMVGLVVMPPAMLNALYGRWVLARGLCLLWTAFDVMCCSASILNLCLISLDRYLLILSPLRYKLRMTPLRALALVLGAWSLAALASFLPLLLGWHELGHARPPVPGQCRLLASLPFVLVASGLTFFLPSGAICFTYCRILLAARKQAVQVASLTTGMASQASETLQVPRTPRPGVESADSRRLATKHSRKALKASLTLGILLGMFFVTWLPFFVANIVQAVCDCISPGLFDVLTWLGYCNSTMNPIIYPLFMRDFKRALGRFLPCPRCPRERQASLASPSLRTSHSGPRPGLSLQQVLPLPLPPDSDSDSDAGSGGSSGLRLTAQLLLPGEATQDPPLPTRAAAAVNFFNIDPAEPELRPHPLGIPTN", "assay": "Radioligand-Binding Assay", "details": "pH 7.4; 37 °C", "procedure": "In brief, receptor source and radioligand used were human recombinant expressed in HEK-293 cells and [3H] LSD (60-80 Ci/mmol), respectively. The final ligand concentration was 1.5 nM and non-specific determinant was methiothepin mesylate ([…]). The reference compound and positive control is methiothepin mesylate. Reactions were carried out in 50 mM Tris-HCl (pH 7.4) containing 10 mM MgCl2, 0.5 mM EDTA for 60 min at 37°C. The reaction was terminated by rapid vacuum filtration onto glass fibre filters.", "units": {"Ki": "nM"}}
{"smiles": "COc1ccc2c(c1)C(CCN(C)C)=C1c3ccccc3S(=O)(=O)C12", "note": "(stereo unspecified) [2-Methoxy-10-(2-N,N-dimethylaminoethyl)benzo[d]isothiazolo[3,2-a]indol-S,S-dioxide (14)]", "Ki": 96}
{"smiles": "CCOc1ccc2c(c1)C(CC(C)N(C)C)=C1c3ccccc3S(=O)(=O)C12", "note": "(stereo unspecified) [2-Ethoxy-10-[(2-N,N-dimethylamino-2-methyl)ethyl]benzo[d]isothiazolo[3,2-a]indol-S,S-dioxide (17)]", "Ki": 11.1}
{"smiles": "CN(C)CCC1=C2c3ccccc3CC2c2c1ccc1ccccc21", "note": "(stereo unspecified) [10-(2-N,N-dimethylaminoethyl)benzo[d]isoindolo[2,1-a]indole (28)]", "Ki": 92.6}
{"smiles": "CN(C)CCC1=C2c3ccccc3S(=O)(=O)C2c2ccccc21", "note": "(stereo unspecified) [10-(2-N,N-Dimethylaminoethyl)benzo[d]isothiazolo[3,2-a]indol-S,S-dioxide (6)]", "Ki": 246}
{"smiles": "CC(CC1=C2c3ccccc3S(=O)(=O)C2c2ccc(OCc3ccccc3)cc21)N(C)C", "note": "(stereo unspecified) [2-Benzyloxy-10-[(2-N,N-dimethylamino-2-methyl)ethyl]benzo[d]isothiazolo[3,2-a]indol-S,S-dioxide (18)]", "Ki": 100}
{"smiles": "CC(CC1=C2c3ccccc3S(=O)(=O)C2c2ccc(Br)cc21)N(C)C", "note": "(stereo unspecified) [2-Bromo-10-[(2-N,N-dimethylamino-2-methyl)ethyl]benzo[d]isothiazolo[3,2-a]indol-S,S-dioxide (13)]", "Ki": 54.1}
{"smiles": "CN(C)CCC1=C2c3ccccc3S(=O)(=O)C2c2ccc(F)cc21", "note": "(stereo unspecified) [10-(2-N,N-Dimethylaminoethyl)-2-fluorobenzo[d]isothiazolo[3,2-a]indol-S,S-dioxide (7)]", "Ki": 267}
{"smiles": "CCC(CC1=C2c3ccccc3S(=O)(=O)C2c2ccc(OC)cc21)N(C)C", "note": "(stereo unspecified) [2-Methoxy-10-[(2-N,N-dimethylamino-2-ethyl)ethyl]benzo[d]isothiazolo[3,2-a]indol-S,S-dioxide (16)]", "Ki": 28.3}
{"smiles": "CC(C)Oc1ccc2c(c1)C(CC(C)N(C)C)=C1c3ccccc3S(=O)(=O)C12", "note": "(stereo unspecified) [2-Isopropoxy-10-[(2-N,N-dimethylamino-2-methyl)ethyl]benzo[d] isothiazolo[3,2-a]indol-S,S-dioxide (19)]", "Ki": 239}
{"smiles": "COc1ccc2c(c1)C(CC(C)N(C)C)=C1c3ccccc3S(=O)(=O)C12", "note": "(stereo unspecified) [2-Methoxy-10-[(2-N,N-dimethylamino-2-methyl)ethyl)]benzo[d]isothiazolo[3,2-a]indol-S,S-dioxide (15)]", "Ki": 11.6}
{"smiles": "CC(CC1=C2c3ccccc3S(=O)(=O)C2c2ccc(OCC3CCCCC3)cc21)N(C)C", "note": "(stereo unspecified) [2-Cyclohexylmethyloxy-10-[(2-N,N-dimethylamino-2-methyl)ethyl]benzo[d] isothiazolo[3,2-a]indol-S,S-dioxide (20)]", "Ki": "> 1000"}
